Assay results from article PMC8509773, “3-Pyridinylidene Derivatives of Chemically Modified Lupane and Ursane Triterpenes as Promising Anticancer Agents by Targeting Apoptosis” (International Journal of Molecular Sciences, 2021).

Columns and labels:
Test in all cases: NCI-60 SRB screening (one-dose and five-dose)
Assay type in all cases: cell-based, human
M14 = conditions: 48 h; for Growth Percent: M14, 10 μM
Protocol: (§1) The compounds were added at a single concentration and the cell cultures were incubated for 48 h. The end point determinations were made with a protein binding dye, sulforhodamine B (SRB). […] The percentage of growth was evaluated spectrophotometrically versus controls not treated with test agents after 48-h exposure and using SRB protein assay to estimate cell viability or growth. […] Furthermore, mean graph midpoints (MG_MID) were calculated for each of the parameters, giving an average activity parameter over all cell lines for the tested compound. For the MG_MID calculation, insensitive cell lines were included with the highest concentration tested.

K-562 = conditions: 48 h; for Growth Percent: K-562, 10 μM
Protocol: as §1

OVCAR-3 = conditions: 48 h; for Growth Percent: OVCAR-3, 10 μM
Protocol: as §1

TK-10 = conditions: TK-10, 10 μM, 48 h
Protocol: as §1

HOP-92 = conditions: 48 h; for Growth Percent: HOP-92, 10 μM
Protocol: as §1

MOLT-4 = conditions: 48 h; for Growth Percent: MOLT-4, 10 μM
Protocol: as §1

OVCAR-8 = conditions: 48 h; for Growth Percent: OVCAR-8, 10 μM
Protocol: as §1

RXF 393 = conditions: 48 h; for Growth Percent: RXF 393, 10 μM
Protocol: as §1

OVCAR-5 = conditions: 48 h; for Growth Percent: OVCAR-5, 10 μM
Protocol: as §1

HCT-116 = conditions: 48 h; for Growth Percent: HCT-116, 10 μM
Protocol: as §1

MDA-MB-231/ATCC = conditions: 48 h; for Growth Percent: 10 μM
Protocol: as §1

MDA-MB-435 = conditions: 48 h; for Growth Percent: MDA-MB-435, 10 μM
Protocol: as §1

DU-145 = conditions: 48 h; for Growth Percent: DU-145, 10 μM
Protocol: as §1

SK-MEL-2 = conditions: 48 h; for Growth Percent: SK-MEL-2, 10 μM
Protocol: as §1

NCI/ADR-RES = conditions: 48 h; for Growth Percent: 10 μM
Protocol: as §1

ACHN = conditions: 48 h; for Growth Percent: 10 μM
Protocol: as §1

NCI-H322M = conditions: 10 μM, 48 h
Protocol: as §1

EKVX = conditions: 48 h; for Growth Percent: 10 μM
Protocol: as §1

SK-MEL-28 = conditions: 48 h; for Growth Percent: SK-MEL-28, 10 μM
Protocol: as §1

SF-268 = conditions: 48 h; for Growth Percent: SF-268, 10 μM
Protocol: as §1

SF-295 = conditions: 48 h; for Growth Percent: SF-295, 10 μM
Protocol: as §1

UO-31 = conditions: 48 h; for Growth Percent: UO-31, 10 μM
Protocol: as §1

MDA-MB-468 = conditions: 48 h; for Growth Percent: MDA-MB-468, 10 μM
Protocol: as §1

MCF7 = conditions: 48 h; for Growth Percent: MCF7, 10 μM
Protocol: as §1

786-0 = conditions: 48 h; for Growth Percent: 786-0, 10 μM
Protocol: as §1

UACC-257 = conditions: 48 h; for Growth Percent: UACC-257, 10 μM
Protocol: as §1

HCT-15 = conditions: 48 h; for Growth Percent: HCT-15, 10 μM
Protocol: as §1

SK-MEL-5 = conditions: 48 h; for Growth Percent: SK-MEL-5, 10 μM
Protocol: as §1

MALME-3M = conditions: 48 h; for Growth Percent: 10 μM
Protocol: as §1

OVCAR-4 = conditions: 48 h; for Growth Percent: OVCAR-4, 10 μM
Protocol: as §1

NCI-H460 = conditions: 48 h; for Growth Percent: NCI-H460, 10 μM
Protocol: as §1

BT-549 = conditions: 48 h; for Growth Percent: BT-549, 10 μM
Protocol: as §1

HCC-2998 = conditions: 48 h; for Growth Percent: HCC-2998, 10 μM
Protocol: as §1

SK-OV-3 = conditions: 48 h; for Growth Percent: SK-OV-3, 10 μM
Protocol: as §1

HL-60(TB) = conditions: 48 h; for Growth Percent: 10 μM
Protocol: as §1

SW-620 = conditions: 48 h; for Growth Percent: SW-620, 10 μM
Protocol: as §1

SN12C = conditions: 48 h; for Growth Percent: 10 μM
Protocol: as §1

CCRF-CEM = conditions: 48 h; for Growth Percent: 10 μM
Protocol: as §1

KM-12 = conditions: 48 h; for Growth Percent: KM-12, 10 μM
Protocol: as §1

HS 578T = conditions: 48 h; for Growth Percent: 10 μM
Protocol: as §1

[1] = Homo sapiens, five dose 0.01–100 μM

SMILES: CC(=O)O[C@H]1CC[C@]2(C)[C@H]3CC[C@@H]4[C@H]5[C@H](C)[C@@]6(C)OC[C@]5(CC[C@@]4(C)[C@]3(C)CC[C@H]2C1(C)C)CC6C(C)=O (stereo partly shown) [Compound 1]
- Growth Percent (M14): 74.76%
- Growth Percent (K-562): 39.40%
- Growth Percent (OVCAR-3): 84.02%
- Growth Percent (TK-10): 109.75%
- Growth Percent (HOP-92): 70.21%
- Growth Percent (MOLT-4): 42.52%
- Growth Percent (OVCAR-8): 92.52%
- Growth Percent (RXF 393): 89.49%
- Growth Percent (OVCAR-5): 97.46%
- Growth Percent (HCT-116): 41.92%
- Growth Percent (MDA-MB-231/ATCC): 88.35%
- Growth Percent (MDA-MB-435): 83.22%
- Growth Percent (DU-145): 99.41%
- Growth Percent (SK-MEL-2): 92.21%
- Growth Percent (NCI/ADR-RES): 96.25%
- Growth Percent (ACHN): 86.11%
- Growth Percent (NCI-H322M): 95.70%
- Growth Percent (EKVX): 91.35%
- Growth Percent (SK-MEL-28): 80.73%
- Growth Percent (SF-268): 97.23%
- Growth Percent (SF-295): 96.73%
- Growth Percent (UO-31): 95.19%
- Growth Percent (MDA-MB-468): 57.26%
- Growth Percent (MCF7): 56.74%
- Growth Percent (786-0): 97.17%
- Growth Percent (UACC-257): 84.73%
- Growth Percent (HCT-15): 38.30%
- Growth Percent (SK-MEL-5): 47.27%
- Growth Percent (MALME-3M): 81.27%
- Growth Percent (OVCAR-4): 75.77%
- Growth Percent (NCI-H460): 84.90%
- Growth Percent (BT-549): 96.17%
- Growth Percent (HCC-2998): 92.22%
- Growth Percent (SK-OV-3): 98.97%
- Growth Percent (HL-60(TB)): 39.32%
- Growth Percent (SW-620): 68.02%
- Growth Percent (SN12C): 88.79%
- Growth Percent (CCRF-CEM): 64.97%
- Growth Percent (KM-12): 78.19%
- Growth Percent (HS 578T): 98.58%

SMILES: C[C@H]1[C@@H]2[C@H]3CC[C@@H]4[C@@]5(C)CC[C@H](O)C(C)(C)[C@@H]5CC[C@@]4(C)[C@]3(C)CC[C@]23CO[C@@]1(C)C(C(=O)/C=C/c1cccnc1)C3 (stereo partly shown) [Compound 4]
- Growth Percent (M14): 60.79%
- Growth Percent (K-562): 17.96%
- Growth Percent (OVCAR-3): 46.73%
- Growth Percent (TK-10): 31.89%
- Growth Percent (HOP-92): 79.10%
- Growth Percent (MOLT-4): 25.21%
- Growth Percent (OVCAR-8): 35.05%
- Growth Percent (RXF 393): 75.20%
- Growth Percent (OVCAR-5): 120.62%
- Growth Percent (HCT-116): 14.40%
- Growth Percent (MDA-MB-231/ATCC): 82.10%
- Growth Percent (MDA-MB-435): 34.50%
- Growth Percent (DU-145): 73.94%
- Growth Percent (SK-MEL-2): 87.32%
- Growth Percent (NCI/ADR-RES): 78.87%
- Growth Percent (ACHN): 41.58%
- Growth Percent (NCI-H322M): 88.41%
- Growth Percent (EKVX): 101.00%
- Growth Percent (SK-MEL-28): 66.23%
- Growth Percent (SF-268): 81.93%
- Growth Percent (SF-295): 79.88%
- Growth Percent (UO-31): 58.69%
- Growth Percent (MDA-MB-468): 20.53%
- Growth Percent (MCF7): 23.65%
- Growth Percent (786-0): 63.59%
- Growth Percent (UACC-257): 49.29%
- Growth Percent (HCT-15): 38.53%
- Growth Percent (SK-MEL-5): 37.02%
- Growth Percent (MALME-3M): 54.41%
- Growth Percent (OVCAR-4): 49.03%
- Growth Percent (NCI-H460): 40.71%
- Growth Percent (BT-549): 57.24%
- Growth Percent (HCC-2998): 69.92%
- Growth Percent (SK-OV-3): 77.76%
- Growth Percent (HL-60(TB)): 47.50%
- Growth Percent (SW-620): 32.25%
- Growth Percent (SN12C): 62.68%
- Growth Percent (CCRF-CEM): 30.84%
- Growth Percent (KM-12): 54.39%
- Growth Percent (HS 578T): 81.98%

SMILES: COc1cccc2c1C(=O)c1c(O)c3c(c(O)c1C2=O)C[C@@](O)(C(=O)CO)C[C@@H]3O[C@H]1C[C@H](N)[C@H](O)[C@H](C)O1 [Doxorubicin, reference compound]
- GI50 (M14; Homo sapiens, M14, five dose 0.01–100 μM): 180 nM
- GI50 (K-562; Homo sapiens, K562, K-562, five dose 0.01–100 μM): 190 nM
- GI50 (OVCAR-3; Homo sapiens, OVCAR-3, five dose 0.01–100 μM): 390 nM
- GI50 (HOP-92; Homo sapiens, HOP-92, five dose 0.01–100 μM): 100 nM
- GI50 (MOLT-4; Homo sapiens, MOLT-4, five dose 0.01–100 μM): 30 nM
- GI50 (OVCAR-8; Homo sapiens, OVCAR-8, five dose 0.01–100 μM): 100 nM
- GI50 (RXF 393; Homo sapiens, RXF 393, five dose 0.01–100 μM): 100 nM
- GI50 (OVCAR-5; Homo sapiens, OVCAR-5, five dose 0.01–100 μM): 410 nM
- GI50 (HCT-116; Homo sapiens, HCT-116, five dose 0.01–100 μM): 80 nM
- GI50 (MDA-MB-231/ATCC; [1]): 510 nM
- GI50 (MDA-MB-435; Homo sapiens, MDA-MB-435, MDA-B-435, five dose 0.01–100 μM): 250 nM
- GI50 (DU-145; Homo sapiens, DU-145, five dose 0.01–100 μM): 110 nM
- GI50 (SK-MEL-2; Homo sapiens, SK-MEL-2, five dose 0.01–100 μM): 170 nM
- GI50 (NCI/ADR-RES; [1]): 7160 nM
- GI50 (ACHN; [1]): 80 nM
- GI50 (EKVX; [1]): 410 nM
- GI50 (SK-MEL-28; Homo sapiens, SK-MEL-28, five dose 0.01–100 μM): 210 nM
- GI50 (SF-268; Homo sapiens, SF-268, five dose 0.01–100 μM): 100 nM
- GI50 (SF-295; Homo sapiens, SF-295, five dose 0.01–100 μM): 100 nM
- GI50 (UO-31; Homo sapiens, UO-31, five dose 0.01–100 μM): 490 nM
- GI50 (MDA-MB-468; Homo sapiens, MDA-MB-468, five dose 0.01–100 μM): 50 nM
- GI50 (MCF7; Homo sapiens, MCF7, five dose 0.01–100 μM): 30 nM
- GI50 (786-0; Homo sapiens, 786-0, five dose 0.01–100 μM): 130 nM
- GI50 (UACC-257; Homo sapiens, UACC-257, five dose 0.01–100 μM): 140 nM
- GI50 (HCT-15; Homo sapiens, HCT-15, five dose 0.01–100 μM): 6460 nM
- GI50 (SK-MEL-5; Homo sapiens, SK-MEL-5, five dose 0.01–100 μM): 80 nM
- GI50 (MALME-3M; [1]): 120 nM
- GI50 (OVCAR-4; Homo sapiens, OVCAR-4, five dose 0.01–100 μM): 370 nM
- GI50 (NCI-H460; Homo sapiens, NCI-H460, five dose 0.01–100 μM): 20 nM
- GI50 (BT-549; Homo sapiens, BT-549, five dose 0.01–100 μM): 230 nM
- GI50 (HCC-2998; Homo sapiens, HCC-2998, five dose 0.01–100 μM): 260 nM
- GI50 (SK-OV-3; Homo sapiens, SK-OV-3, five dose 0.01–100 μM): 220 nM
- GI50 (HL-60(TB); [1]): 120 nM
- GI50 (SW-620; Homo sapiens, SW-620, five dose 0.01–100 μM): 90 nM
- GI50 (SN12C; [1]): 70 nM
- GI50 (CCRF-CEM; [1]): 80 nM
- GI50 (KM-12; Homo sapiens, KM12, KM-12, five dose 0.01–100 μM): 270 nM
- GI50 (HS 578T; [1]): 330 nM
